Source: ChEMBL document CHEMBL1212723, “Bioactivity-guided mapping and navigation of chemical space” (Nat Chem Biol, 2009)
pEC50, pIC50, pKi: −log10 of the molar value. Activity calls are given as the source filed them. The calls are words filed in the database; no cut-off is given here.

Experiments:
[1] = molecular target: T1, Polyunsaturated fatty acid 5-lipoxygenase (Homo sapiens, UniProt P09917); assay: Inhibition of LOX5 in human whole blood assessed as inhibition of conversion of arachidonic acid to leukotriene; assay type: tissue-based
T1 sequence (P09917 whole entry): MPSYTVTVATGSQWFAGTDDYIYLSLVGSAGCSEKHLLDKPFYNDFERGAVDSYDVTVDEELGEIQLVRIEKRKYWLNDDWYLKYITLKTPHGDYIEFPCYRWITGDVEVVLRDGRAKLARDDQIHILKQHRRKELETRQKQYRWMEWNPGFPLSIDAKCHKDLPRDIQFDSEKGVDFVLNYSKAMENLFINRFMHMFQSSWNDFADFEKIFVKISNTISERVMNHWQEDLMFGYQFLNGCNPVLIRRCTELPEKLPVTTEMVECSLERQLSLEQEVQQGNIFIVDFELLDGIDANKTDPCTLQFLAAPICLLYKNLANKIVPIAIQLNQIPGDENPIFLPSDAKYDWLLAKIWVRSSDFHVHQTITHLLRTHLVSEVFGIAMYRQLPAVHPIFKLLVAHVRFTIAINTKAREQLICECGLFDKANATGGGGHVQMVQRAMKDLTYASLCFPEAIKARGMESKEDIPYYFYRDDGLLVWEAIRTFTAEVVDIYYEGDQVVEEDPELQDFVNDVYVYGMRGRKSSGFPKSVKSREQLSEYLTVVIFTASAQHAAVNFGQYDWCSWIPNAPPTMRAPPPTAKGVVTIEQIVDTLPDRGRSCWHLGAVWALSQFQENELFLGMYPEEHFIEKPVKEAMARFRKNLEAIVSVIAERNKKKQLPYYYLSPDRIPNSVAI

[2] = molecular target: T2, Estrogen receptor beta (Homo sapiens, UniProt Q92731); assay: Antagonist activity at human ERbeta ligand binding domain expressed in Escherichia coli BL21(DE3) cells assessed as inhibition of coactivator 53-protein binding by fluorescence assay
T2 sequence (Q92731 whole entry, the tested form may be a part): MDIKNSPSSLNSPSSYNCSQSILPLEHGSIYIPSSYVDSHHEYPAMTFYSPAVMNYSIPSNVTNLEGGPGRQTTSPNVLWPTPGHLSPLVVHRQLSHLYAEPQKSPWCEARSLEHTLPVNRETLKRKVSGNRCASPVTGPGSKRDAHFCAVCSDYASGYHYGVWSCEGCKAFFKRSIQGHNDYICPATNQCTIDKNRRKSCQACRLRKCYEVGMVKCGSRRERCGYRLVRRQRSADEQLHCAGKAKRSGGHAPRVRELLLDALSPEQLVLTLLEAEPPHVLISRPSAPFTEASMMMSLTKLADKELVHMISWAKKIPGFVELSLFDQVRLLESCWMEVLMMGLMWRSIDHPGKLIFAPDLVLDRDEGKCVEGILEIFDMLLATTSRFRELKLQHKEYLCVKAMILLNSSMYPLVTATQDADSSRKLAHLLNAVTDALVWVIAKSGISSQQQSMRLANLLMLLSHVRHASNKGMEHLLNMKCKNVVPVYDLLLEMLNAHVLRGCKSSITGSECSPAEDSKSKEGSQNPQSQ

[3] = molecular target: T3, Estrogen receptor (Homo sapiens, UniProt P03372)
T3 sequence (P03372 whole entry): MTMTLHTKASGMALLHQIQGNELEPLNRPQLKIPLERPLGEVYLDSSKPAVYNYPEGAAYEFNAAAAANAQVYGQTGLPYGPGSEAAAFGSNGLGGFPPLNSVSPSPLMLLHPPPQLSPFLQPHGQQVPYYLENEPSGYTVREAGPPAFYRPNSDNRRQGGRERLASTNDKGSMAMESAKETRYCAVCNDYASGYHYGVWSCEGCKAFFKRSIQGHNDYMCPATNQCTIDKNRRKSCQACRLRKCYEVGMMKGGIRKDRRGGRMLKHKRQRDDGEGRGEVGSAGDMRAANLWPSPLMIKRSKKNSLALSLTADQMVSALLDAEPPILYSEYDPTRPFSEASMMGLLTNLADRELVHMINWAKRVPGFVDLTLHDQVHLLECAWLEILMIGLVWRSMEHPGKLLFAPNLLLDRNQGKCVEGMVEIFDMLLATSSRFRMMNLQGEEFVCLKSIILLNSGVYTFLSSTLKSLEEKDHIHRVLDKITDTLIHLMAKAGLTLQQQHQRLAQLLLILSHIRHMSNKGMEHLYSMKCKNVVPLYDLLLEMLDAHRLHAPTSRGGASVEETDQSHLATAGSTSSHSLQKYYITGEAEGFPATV

[4] = molecular target: T2, Estrogen receptor beta; assay: Binding affinity to human ERbeta ligand binding domain expressed in Escherichia coli BL21(DE3) cells assessed as recruitment of fluorescently labeled nuclear coactivator Scr1 after 1 hr by fluorescence polarization assay
[5] = molecular target: T3, Estrogen receptor; assay: biochemical
Description: Binding affinity to human ERalpha ligand binding domain expressed in Escherichia coli BL21(DE3) cells assessed as recruitment of fluorescently labeled nuclear coactivator Scr1 after 1 hr by fluorescence polarization assay

[6] = molecular target: T2, Estrogen receptor beta; assay: Agonist activity at human ERbeta ligand binding domain expressed in Escherichia coli BL21(DE3) cells assessed as induction of coactivator 53-protein binding by fluorescence assay

c1ccc(COc2ccc3ccccc3c2)cc1
pIC50 [1]: 5.02

CN(C)CCNC(=O)c1ccc(COc2ccc3ccccc3c2)cc1
pIC50 [1]: 5.52

O=S(=O)(c1ccc2ccccc2c1)N1CCc2cc(O)ccc2[C@H]1c1ccc(OCCN2CCCC2)cc1
inhibition [2]: Active

O=C(N1CCc2cc(O)ccc2[C@H]1c1ccc(OCCN2CCCC2)cc1)C(F)(F)F
inhibition [2]: Active

O=C(N1CCc2cc(O)ccc2C1)C(F)(F)F
pKi [3]: 8.70 | pEC50 [4]: 5.34 | pEC50 [5]: 6.56 | Activity [6]: Active

O=S(=O)(c1ccccc1)N1CCc2cc(O)ccc2[C@H]1c1ccc(OCCN2CCCC2)cc1
inhibition [2]: Active
